Test results reported in patent publication US11708344B2, “Flavone derivatives for the treatment and prophylaxis of hepatitis B virus disease” (Hoffmann-La Roche Inc., priority 2018, dated 2023).
Like-named read-outs stand apart in the source and are kept apart here.

Assays:
[1] = test system: HBeAg (surrogate marker for cccDNA) in HepDES19 cells; assay: Engineered HepDES19 primary screen assay (HBeAg ELISA); type: cell-based, HBV
Method in brief: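 HepDES19 cells were induced by Tet withdrawal for 8 days, then treated with half-log compound dilutions (1% DMSO final) for 5 days at 37 °C. HBeAg was measured by ELISA as the cccDNA surrogate, viability by CCK-8, and IC50 from a 4-parameter logistic fit.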

[2] = Human microsome stability assay; type: in vitro ADME; conditions: human liver microsomes, 1 μM test compound, 0.5 mg/mL microsomal protein, 37° C., pH 7.4, 0-30 minutes
Method in brief: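 Compound (1 μM) incubated at 37 °C with human liver microsomes (0.5 mg/mL protein) in 100 mM potassium phosphate, pH 7.4, after 10 min preincubation; started with NADPH regenerating system. Sampled at 0–30 min, quenched with cold ACN; remaining parent quantified by LC-MS/MS, with no-NADPH controls.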

[3] = Hepatitis B virus, HepDES19, 120 h, read-out: IC50 (HBeAg level, HepDES19 primary screen assay), HepDES19 cells, 5 days compound incubation, HBeAg ELISA

| Structure (SMILES) | IC50 ([1]; read-out: IC50 (HBeAg level, HepDES19 primary screen assay), HepDES19 cells, 5 days compound incubation, HBeAg ELISA) [µM] | Clearance of Human microsome [2] [mL/min/kg] | IC50 [1, 3] [µM] |
| --- | --- | --- | --- |
| O=C(O)C1CCCN1C(=O)COc1cc(C(F)(F)F)ccc1-c1cc(=O)c2cccc(Cl)c2o1 (stereo in doubt) [Example A082, (2S)-1-[2-[2-(8-chloro-4-oxo-chromen-2-yl)-5-(trifluoromethyl)phenoxy]acetyl]pyrrolidine-2-carboxylic acid] | 1.19 | 6.15 |  |
| O=c1cc(-c2ccc(C(F)(F)F)cc2O[C@H]2C[C@@H](C(=O)O)C2)oc2c(Cl)ccc(O)c12 [Example B038-A, Cis-3-[2-(8-chloro-5-hydroxy-4-oxo-chromen-2-yl)-5-(trifluoromethyl)phenoxy]cyclobutanecarboxylic acid] |  | 6.84 | 1.05 |
| O=c1cc(-c2ccc(C(F)(F)F)cc2OCCO[C@H]2C[C@@H](C(=O)O)C2)oc2c(Cl)ccc(O)c12 [Example C099, cis-3-[2-[2-(8-chloro-5-hydroxy-4-oxo-chromen-2-yl)-5-(trifluoromethyl)phenoxy]ethoxy]cyclobutanecarboxylic acid] |  | 7.11 | 15.7 |
| O=C(O)[C@H]1C[C@@H](Oc2cc(C(F)(F)F)ccc2-c2cc(=O)c3cccc(Cl)c3o2)CN1S(=O)(=O)c1ccccc1 [Example B088, (2R,4R)-1-(benzenesulfonyl)-4-[2-(8-chloro-4-oxo-chromen-2-yl)-5-(trifluoromethyl)phenoxy]pyrrolidine-2-carboxylic acid] |  | 6.15 | 1.85 |
| O=C(O)C1CC(OCCOc2ccccc2-c2cc(=O)c3cccc(Br)c3o2)C1 (stereo in doubt) [Example C046-A, Cis-3-[2-[2-(8-bromo-4-oxo-chromen-2-yl)phenoxy]ethoxy]cyclobutanecarboxylic acid] |  | 6.15 | 0.192 |
| CC(C)(COc1cc(C(F)(F)F)ccc1-c1cc(=O)c2cccc(Cl)c2o1)C(=O)O [Example A062, 3-[2-(8-chloro-4-oxo-chromen-2-yl)-5-(trifluoromethyl)phenoxy]-2,2-dimethyl-propanoic acid] |  | 9.88 | 13 |
| N[C@@H](COc1cc(C(F)(F)F)ccc1-c1cc(=O)c2cccc(Cl)c2o1)C(=O)O [Example A095, (2S)-2-amino-3-[2-(8-chloro-4-oxo-chromen-2-yl)-5-(trifluoromethyl)phenoxy]propanoic acid] |  | 9.59 | 3.29 |
| COc1ccc(OC[C@H]2C[C@H](C(=O)O)C2)c(-c2cc(=O)c3cccc(Cl)c3o2)c1 [Example B027-B] |  | 6.15 | 11 |
| COc1cc(OCCO[C@H]2C[C@@H](C(=O)O)C2)c(-c2cc(=O)c3c(O)ccc(Cl)c3o2)cc1OC [Example C098, cis-3-[2-[2-(8-chloro-5-hydroxy-4-oxo-chromen-2-yl)-4,5-dimethoxy-phenoxy]ethoxy]cyclobutanecarboxylic acid] |  | 6.15 | 8.56 |
| Cc1cc(F)c(-c2cc(=O)c3cccc(Cl)c3o2)c(OCCC(=O)O)c1 [Example A021, 3-[2-(8-chloro-4-oxo-chromen-2-yl)-3-fluoro-5-methyl-phenoxy]propanoic acid] |  | 6.15 | 4.04 |
| CCOc1ccc(-c2cc(=O)c3cccc(Cl)c3o2)c(OCCO[C@H]2C[C@H](C(=O)O)C2)c1 [Example C035-B, Trans-3-[2-[2-(8-chloro-4-oxo-chromen-2-yl)-5-ethoxy-phenoxy]ethoxy]cyclobutanecarboxylic acid] |  | 9.78 | 17.9 |
| COc1cc(OCC(=O)O)c(-c2cc(=O)c3cccc(Cl)c3o2)cc1OC [Example A050, 2-[2-(8-chloro-4-oxo-chromen-2-yl)-4,5-dimethoxy-phenoxy]acetic acid] |  | 6.15 | 11.8 |
| COc1ccc(-c2cc(=O)c3cccc(Cl)c3o2)c(OCCO[C@H]2C[C@@H](C(=O)O)C2)c1 [Example C039-A, Cis-3-[2-[2-(8-chloro-4-oxo-chromen-2-yl)-5-methoxy-phenoxy]ethoxy]cyclobutanecarboxylic acid] |  | 6.15 | 8.91 |
| COc1cc(-c2cc(=O)c3cccc(Cl)c3o2)c(O[C@H]2C[C@H](C(=O)NS(C)(=O)=O)C2)cc1Br [Example B053-B, Trans-3-[5-bromo-2-(8-chloro-4-oxo-chromen-2-yl)-4-methoxy-phenoxy]-N-methylsulfonyl-cyclobutanecarboxamide] |  | 6.15 | 0.912 |
| O=c1cc(-c2ccccc2OCCO[C@H]2C[C@@H](C(=O)O)C2)oc2c(Cl)ccc(C(F)(F)F)c12 [Example C094, cis-3-[2-[2-[8-chloro-4-oxo-5-(trifluoromethyl)chromen-2-yl]phenoxy]ethoxy]cyclobutanecarboxylic acid] |  | 6.15 | 0.04 |
| CC(C)c1ccc(-c2cc(=O)c3cccc(Cl)c3o2)c(O[C@H]2C[C@H](C(=O)O)C2)c1 [Example B020-B, Trans-3-[2-(8-chloro-4-oxo-chromen-2-yl)-5-isopropyl-phenoxy]cyclobutanecarboxylic acid] |  | 8.46 | 9.44 |
| O=C(O)[C@@H]1CC[C@@H](Oc2cc(Br)ccc2-c2cc(=O)c3cccc(Cl)c3o2)C1 (relative stereo) [Example B028-B, Trans-3-[5-bromo-2-(8-chloro-4-oxo-chromen-2-yl)phenoxy]cyclopentanecarboxylic acid] |  | 9.98 | 0.213 |
| CS(=O)(=O)NC(=O)[C@H]1C[C@@H](Oc2cc(C(F)(F)F)ccc2-c2cc(=O)c3cccc(Cl)c3o2)C1 [Example B048-A, Cis-3-[2-(8-chloro-4-oxo-chromen-2-yl)-5-(trifluoromethyl)phenoxy]-N-methylsulfonyl-cyclobutanecarboxamide] |  | 6.15 | 0.632 |
| O=C(O)[C@H]1C[C@H](Oc2cc(C(F)(F)F)ccc2-c2cc(=O)c3cccc(Cl)c3o2)CN1S(=O)(=O)c1ccccc1 [Example B087, (2R,4S)-1-(benzenesulfonyl)-4-[2-(8-chloro-4-oxo-chromen-2-yl)-5-(trifluoromethyl)phenoxy]pyrrolidine-2-carboxylic acid] |  | 6.15 | 3 |
| COc1ccc(-c2cc(=O)c3cccc(Cl)c3o2)c(OCCO[C@H]2C[C@H](C(=O)O)C2)c1 [Example C039-B, Trans-3-[2-[2-(8-chloro-4-oxo-chromen-2-yl)-5-methoxy-phenoxy]ethoxy]cyclobutanecarboxylic acid] |  | 6.15 | 17.5 |
| O=C(O)[C@@H]1CCCN1C(=O)CCOc1cc(Br)ccc1-c1cc(=O)c2cccc(Cl)c2o1 [Example A076, (2S)-1-[3-[5-bromo-2-(8-chloro-4-oxo-chromen-2-yl)phenoxy]propanoyl]pyrrolidine-2-carboxylic acid] |  | 6.15 | 14.1 |
| CCOc1ccc(-c2cc(=O)c3cccc(Cl)c3o2)c(OCCO[C@H]2C[C@@H](C(=O)O)C2)c1 [Example C035-A, Cis-3-[2-[2-(8-chloro-4-oxo-chromen-2-yl)-5-ethoxy-phenoxy]ethoxy]cyclobutanecarboxylic acid] |  | 8.64 | 12.5 |
| COc1ccc(O[C@H]2C[C@H](C(=O)O)C2)c(-c2cc(=O)c3cccc(Cl)c3o2)c1 [Example B021, Trans-3-[2-(8-chloro-4-oxo-chromen-2-yl)-4-methoxy-phenoxy]cyclobutanecarboxylic acid] |  | 6.15 | 3.06 |
| CS(=O)(=O)NC(=O)[C@H]1C[C@@H](OCCOc2cc(C(F)(F)F)ccc2-c2cc(=O)c3cccc(Cl)c3o2)C1 [Example C121, Cis-3-[2-[2-(8-chloro-4-oxo-chromen-2-yl)-5-(trifluoromethyl)phenoxy]ethoxy]-N-methylsulfonyl-cyclobutanecarboxamide] |  | 8.68 | 5.89 |
| COc1cc(-c2cc(=O)c3cccc(Cl)c3o2)c(O[C@H]2C[C@@H](C(=O)NS(=O)(=O)C3CC3)C2)cc1Br [Example B054, Cis-3-[5-bromo-2-(8-chloro-4-oxo-chromen-2-yl)-4-methoxy-phenoxy]-N-cyclopropylsulfonyl-cyclobutanecarboxamide] |  | 6.15 | 1.65 |
| O=c1cc(-c2ncc(Br)cc2O[C@H]2C[C@H](C(=O)O)C2)oc2c(Cl)cccc12 [Example B029, Trans-3-[[5-bromo-2-(8-chloro-4-oxo-chromen-2-yl)-3-pyridyl]oxy]cyclobutanecarboxylic acid] |  | 6.15 | 14.1 |
| Cc1cc(-c2cc(=O)c3c(O)ccc(Cl)c3o2)c(O[C@H]2C[C@H](C(=O)O)C2)cc1Br [Example B040-B, trans-3-[5-bromo-2-(8-chloro-5-hydroxy-4-oxo-chromen-2-yl)-4-methyl-phenoxy]cyclobutanecarboxylic acid] |  | 6.29 | 2.93 |
